According to US6720008B2, “Composition and method for the encapsulation of water-soluble molecules into nanoparticles” (PR Pharmaceuticals, Inc., priority 2002, dated 2004):

Test: Solubility of eosin in oil and organic solvent
Type: physicochemical
Description: A water/oil microemulsion was prepared as follows: 1.0 ml isopropyl myristate was added to 1.4 ml of a surfactant mixture consisting of polyoxyethylene sorbitan monooleate (Tween 80): sorbitan monolaurate (Span 20): ethanol in a 45:30:25 volume ratio. Next, 0.6 ml of a 6% (w/v) eosin Y solution was added and the mixture briefly vortexed until an optically clear, single phase solution resulted (it was confirmed that eosin was not soluble in the oil or the ethyl acetate prior to formulation of the microemulsion nanocapsules).
A water/oil microemulsion was prepared by adding 0.5 ml hexadecane to a surfactant mixture consisting of polyoxyethylene sorbitan monooleate (Tween 80): sorbitan monolaurate (Span 20): ethanol in a 45:30:25 volume ratio. To that mixture, 0.35 ml of a 6% (w/v) eosin Y solution was added. […] Nanoparticles were formed and the eosin encapsulation was measured as described in Example 1. The amount of eosin incorporated into nanocapsules was 98% of the initial quantity added.

Compound: O=C1OC2(c3ccccc31)c1cc(Br)c(O)c(Br)c1Oc1c2cc(Br)c(O)c1Br [eosin, eosin Y]
- solubility of eosin in hexadecane (conditions of Example 2): not to be soluble
- solubility of eosin in the oil or the ethyl acetate (oil = isopropyl myristate, prior to formulation of the microemulsion nanocapsules): not soluble
